Measured values as given in article PMC12268802, “The herbicidal natural product phosphonothrixin is an inhibitor of the riboflavin biosynthetic enzyme L‐3,4‐dihydroxy‐2‐butanone‐4‐phosphate synthase” (Pest Management Science, 2025).

Tests used:
Oryza sativa (ORYSA) = test: Herbicidal greenhouse screening, post-emergence; type: in vivo; conditions: visual, 3 weeks after spraying
Description: (§1) Seeds of mono‐ and dicotyledonous weed plants were sown in plastic pots of 7 cm diameter filled with a clayey silt soil substrate. The plants were maintained for the preparatory phase of germination and initial growth in the greenhouse under optimum growth conditions. Phosphonothrixin (1) was prepared for application as an emulsion concentrate and diluted together with 0.2% agrotin (a polyfunctional non‐ionic additive) in water corresponding to a spray volume of approximately 600 L ha^−1. At a growth stage of 2 to 4 true leaves the test plants were sprayed and then placed in the greenhouse for 3 weeks under optimum growth conditions. Subsequently, the effect of phosphonothrixin (1) was assessed visually relative to the untreated controls resulting in herbicidal effects (%) ranging from 0% (no effect = untreated control) to 100% (complete control = died‐off ).

[1] = tested on: Triticum aestivum (spring wheat, TRZAS); test: Herbicidal greenhouse screening, post-emergence; type: in vivo; conditions: visual, 3 weeks after spraying
Description: as §1

Zea mays (ZEAMX) = test: Herbicidal greenhouse screening, post-emergence; type: in vivo; conditions: visual, 3 weeks after spraying
Description: as §1

Avena fatua (AVEFA) = test: Herbicidal greenhouse screening, post-emergence; type: in vivo; conditions: visual, 3 weeks after spraying
Description: as §1

[2] = tested on: Amaranthus retroflexus (AMARE); test: Herbicidal greenhouse screening, post-emergence; type: in vivo; conditions: visual, 3 weeks after spraying
Description: as §1

Stellaria media (STEME) = test: Herbicidal greenhouse screening, post-emergence; type: in vivo; conditions: visual, 3 weeks after spraying
Description: as §1

[3] = tested on: Matricaria inodora (MATIN); test: Herbicidal greenhouse screening, post-emergence; type: in vivo; conditions: visual, 3 weeks after spraying
Description: as §1

[4] = tested on: Lolium multiflorum (LOLMU); test: Herbicidal greenhouse screening, post-emergence; type: in vivo; conditions: visual, 3 weeks after spraying
Description: as §1

[5] = tested on: Abutilon theophrasti (ABUTH); test: Herbicidal greenhouse screening, post-emergence; type: in vivo; conditions: visual, 3 weeks after spraying
Description: as §1

Setaria viridis (SETVI) = test: Herbicidal greenhouse screening, post-emergence; type: in vivo; conditions: visual, 3 weeks after spraying
Description: as §1

[6] = tested on: Cyperus esculentus (CYPES); test: Herbicidal greenhouse screening, post-emergence; type: in vivo; conditions: visual, 3 weeks after spraying
Description: as §1

[7] = tested on: Brassica napus (winter rape, BRSNW); test: Herbicidal greenhouse screening, post-emergence; type: in vivo; conditions: visual, 3 weeks after spraying
Description: as §1

[8] = tested on: Echinochloa crus‐galli (ECHCG); test: Herbicidal greenhouse screening, post-emergence; type: in vivo; conditions: visual, 3 weeks after spraying
Description: as §1

[9] = tested on: Polygonum convolvulus (POLCO); test: Herbicidal greenhouse screening, post-emergence; type: in vivo; conditions: visual, 3 weeks after spraying
Description: as §1

[10] = tested on: Alopecurus myosuroides (ALOMY); test: Herbicidal greenhouse screening, post-emergence; type: in vivo; conditions: visual, 3 weeks after spraying
Description: as §1

[11] = tested on: Pharbitis purpurea (PHBPU); test: Herbicidal greenhouse screening, post-emergence; type: in vivo; conditions: visual, 3 weeks after spraying
Description: as §1

Viola tricolor (VIOTR) = test: Herbicidal greenhouse screening, post-emergence; type: in vivo; conditions: visual, 3 weeks after spraying
Description: as §1

Veronica persica (VERPE) = test: Herbicidal greenhouse screening, post-emergence; type: in vivo; conditions: visual, 3 weeks after spraying
Description: as §1

[12] = tested on: mono‐ and dicotyledonous weed plants; test: Greenhouse test, post-emergence, phenotype of affected plants; type: in vivo
Description: as §1

[13] = tested on: mono‐ and dicotyledonous weed plants; test: Greenhouse test, pre-emergence; type: in vivo; conditions: highest application rate tested; data not shown
[14] = tested on: gramineous and broadleaf weeds; set-up: method as in PMID 7490218, PMID 7490219; conditions: cited from earlier work
AtDHBPS = molecular target: T1, AtDHBPS (Arabidopsis thaliana, UniProt P47924); test: Thermal stability shift analysis; type: binding; conditions: 6.5 μM AtDHBPS
T1 construct: made in house; host or cells: Escherichia coli BL21(DE3)
T1 sequence (P47924 with tags, fused parts or gaps): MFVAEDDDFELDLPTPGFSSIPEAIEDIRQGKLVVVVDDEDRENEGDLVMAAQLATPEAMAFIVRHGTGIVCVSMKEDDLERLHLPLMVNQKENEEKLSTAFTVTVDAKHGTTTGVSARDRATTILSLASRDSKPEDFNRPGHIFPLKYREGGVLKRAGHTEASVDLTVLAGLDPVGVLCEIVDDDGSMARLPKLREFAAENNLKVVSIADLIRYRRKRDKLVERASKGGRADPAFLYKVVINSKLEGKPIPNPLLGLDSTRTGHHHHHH
Description: AtDHBPS melting curves were determined in 96‐well microtiter plates in a Roche Light Cycler 480. The assay mixture contained 50 mM HEPES pH 7.5, 75 mM NaCl, 2.5 mM MgCl2, 7.5x SYPRO Orange and 6.5 μM AtDHBPS in a total volume of 20 μL. A linear temperature gradient from 25 to 85 °C with a ramping of 3.25 °C min^−1 was applied. Melting temperatures were determined from plots of the first derivative of the fluorescence intensity versus temperature.

CC(=O)C(O)(CO)CP(=O)(O)O (stereo not shown) [phosphonothrixin]
herbicidal effect rating, post-emergence (Oryza sativa (ORYSA); 1280 g/ha): 1 (‘1’ = 20–39% inhibition) | herbicidal effect rating, post-emergence (Oryza sativa (ORYSA); 5120 g/ha): 2 (‘2’ = 40–59% inhibition) | herbicidal effect rating, post-emergence ([1]; 320 g/ha): 1 (‘1’ = 20–39% inhibition) | herbicidal effect rating, post-emergence ([1]; 1280 g/ha): 4 (‘4’ = 80–90% inhibition) | herbicidal effect rating, post-emergence ([1]; 5120 g/ha): 4 (‘4’ = 80–90% inhibition) | herbicidal effect rating, post-emergence (Zea mays (ZEAMX); 320 g/ha): 2 (‘2’ = 40–59% inhibition) | herbicidal effect rating, post-emergence (Zea mays (ZEAMX); 1280 g/ha): 3 (‘3’ = 60–79% inhibition) | herbicidal effect rating, post-emergence (Zea mays (ZEAMX); 5120 g/ha): 4 (‘4’ = 80–90% inhibition) | herbicidal effect rating, post-emergence (Avena fatua (AVEFA); 80 g/ha): 2 (‘2’ = 40–59% inhibition) | herbicidal effect rating, post-emergence (Avena fatua (AVEFA); 320 g/ha): 3 (‘3’ = 60–79% inhibition) | herbicidal effect rating, post-emergence (Avena fatua (AVEFA); 1280 g/ha): 4 (‘4’ = 80–90% inhibition) | herbicidal effect rating, post-emergence (Avena fatua (AVEFA); 5120 g/ha): 4 (‘4’ = 80–90% inhibition) | herbicidal effect rating, post-emergence ([2]; 80 g/ha): 2 (‘2’ = 40–59% inhibition) | herbicidal effect rating, post-emergence ([2]; 320 g/ha): 3 (‘3’ = 60–79% inhibition) | herbicidal effect rating, post-emergence ([2]; 1280 g/ha): 4 (‘4’ = 80–90% inhibition) | herbicidal effect rating, post-emergence ([2]; 5120 g/ha): 4 (‘4’ = 80–90% inhibition) | herbicidal effect rating, post-emergence (Stellaria media (STEME); 80 g/ha): 3 (‘3’ = 60–79% inhibition) | herbicidal effect rating, post-emergence (Stellaria media (STEME); 320 g/ha): 3 (‘3’ = 60–79% inhibition) | herbicidal effect rating, post-emergence (Stellaria media (STEME); 1280 g/ha): 3 (‘3’ = 60–79% inhibition) | herbicidal effect rating, post-emergence (Stellaria media (STEME); 5120 g/ha): 4 (‘4’ = 80–90% inhibition) | herbicidal effect rating, post-emergence ([3]; 80 g/ha): 2 (‘2’ = 40–59% inhibition) | herbicidal effect rating, post-emergence ([3]; 320 g/ha): 3 (‘3’ = 60–79% inhibition) | herbicidal effect rating, post-emergence ([3]; 1280 g/ha): 4 (‘4’ = 80–90% inhibition) | herbicidal effect rating, post-emergence ([3]; 5120 g/ha): 4 (‘4’ = 80–90% inhibition) | herbicidal effect rating, post-emergence ([4]; 80 g/ha): 1 (‘1’ = 20–39% inhibition) | herbicidal effect rating, post-emergence ([4]; 320 g/ha): 3 (‘3’ = 60–79% inhibition) | herbicidal effect rating, post-emergence ([4]; 1280 g/ha): 4 (‘4’ = 80–90% inhibition) | herbicidal effect rating, post-emergence ([4]; 5120 g/ha): 4 (‘4’ = 80–90% inhibition) | herbicidal effect rating, post-emergence ([5]; 80 g/ha): 2 (‘2’ = 40–59% inhibition) | herbicidal effect rating, post-emergence ([5]; 320 g/ha): 3 (‘3’ = 60–79% inhibition) | herbicidal effect rating, post-emergence ([5]; 1280 g/ha): 4 (‘4’ = 80–90% inhibition) | herbicidal effect rating, post-emergence ([5]; 5120 g/ha): 4 (‘4’ = 80–90% inhibition) | herbicidal effect rating, post-emergence (Setaria viridis (SETVI); 80 g/ha): 4 (‘4’ = 80–90% inhibition) | herbicidal effect rating, post-emergence (Setaria viridis (SETVI); 320 g/ha): 4 (‘4’ = 80–90% inhibition) | herbicidal effect rating, post-emergence (Setaria viridis (SETVI); 1280 g/ha): 4 (‘4’ = 80–90% inhibition) | herbicidal effect rating, post-emergence (Setaria viridis (SETVI); 5120 g/ha): 4 (‘4’ = 80–90% inhibition) | herbicidal effect rating, post-emergence ([6]; 320 g/ha): 2 (‘2’ = 40–59% inhibition) | herbicidal effect rating, post-emergence ([6]; 1280 g/ha): 3 (‘3’ = 60–79% inhibition) | herbicidal effect rating, post-emergence ([6]; 5120 g/ha): 4 (‘4’ = 80–90% inhibition) | herbicidal effect rating, post-emergence ([7]; 80 g/ha): 2 (‘2’ = 40–59% inhibition) | herbicidal effect rating, post-emergence ([7]; 320 g/ha): 3 (‘3’ = 60–79% inhibition) | herbicidal effect rating, post-emergence ([7]; 1280 g/ha): 4 (‘4’ = 80–90% inhibition) | herbicidal effect rating, post-emergence ([7]; 5120 g/ha): 4 (‘4’ = 80–90% inhibition) | herbicidal effect rating, post-emergence ([8]; 80 g/ha): 1 (‘1’ = 20–39% inhibition) | herbicidal effect rating, post-emergence ([8]; 320 g/ha): 2 (‘2’ = 40–59% inhibition) | herbicidal effect rating, post-emergence ([8]; 1280 g/ha): 4 (‘4’ = 80–90% inhibition) | herbicidal effect rating, post-emergence ([8]; 5120 g/ha): 4 (‘4’ = 80–90% inhibition) | herbicidal effect rating, post-emergence ([9]; 80 g/ha): 1 (‘1’ = 20–39% inhibition) | herbicidal effect rating, post-emergence ([9]; 320 g/ha): 1 (‘1’ = 20–39% inhibition) | herbicidal effect rating, post-emergence ([9]; 1280 g/ha): 1 (‘1’ = 20–39% inhibition) | herbicidal effect rating, post-emergence ([9]; 5120 g/ha): 2 (‘2’ = 40–59% inhibition) | herbicidal effect rating, post-emergence ([10]; 320 g/ha): 1 (‘1’ = 20–39% inhibition) | herbicidal effect rating, post-emergence ([10]; 1280 g/ha): 3 (‘3’ = 60–79% inhibition) | herbicidal effect rating, post-emergence ([10]; 5120 g/ha): 4 (‘4’ = 80–90% inhibition) | herbicidal effect rating, post-emergence ([11]; 80 g/ha): 4 (‘4’ = 80–90% inhibition) | herbicidal effect rating, post-emergence ([11]; 320 g/ha): 4 (‘4’ = 80–90% inhibition) | herbicidal effect rating, post-emergence ([11]; 1280 g/ha): 4 (‘4’ = 80–90% inhibition) | herbicidal effect rating, post-emergence ([11]; 5120 g/ha): 4 (‘4’ = 80–90% inhibition) | herbicidal effect rating, post-emergence (Viola tricolor (VIOTR); 80 g/ha): 1 (‘1’ = 20–39% inhibition) | herbicidal effect rating, post-emergence (Viola tricolor (VIOTR); 320 g/ha): 3 (‘3’ = 60–79% inhibition) | herbicidal effect rating, post-emergence (Viola tricolor (VIOTR); 1280 g/ha): 4 (‘4’ = 80–90% inhibition) | herbicidal effect rating, post-emergence (Viola tricolor (VIOTR); 5120 g/ha): 4 (‘4’ = 80–90% inhibition) | herbicidal effect rating, post-emergence (Veronica persica (VERPE); 80 g/ha): 3 (‘3’ = 60–79% inhibition) | herbicidal effect rating, post-emergence (Veronica persica (VERPE); 320 g/ha): 3 (‘3’ = 60–79% inhibition) | herbicidal effect rating, post-emergence (Veronica persica (VERPE); 1280 g/ha): 4 (‘4’ = 80–90% inhibition) | herbicidal effect rating, post-emergence (Veronica persica (VERPE); 5120 g/ha): 4 (‘4’ = 80–90% inhibition) | phenotype of affected plants [12]: bleaching phenotype | pre-emergence herbicidal activity [13]: failed to show any pre‐emergence activity | effect after foliar application [14]: chlorosis | effect on germination ([14]; gramineous and broadleaf weeds): significantly inhibited germination | ΔTm at 10 µM (AtDHBPS; compound 10 μM, read-out: shift of the melting point (deltaTm) of AtDHBPS): 4 °C | deltaTm(max) (AtDHBPS; from plot of deltaTm vs. concentration): 22.7 ± 0.6 °C | Kd (AtDHBPS; from plot of deltaTm vs. concentration, read-out: Kd-value for binding to AtDHBPS): 31.1 ± 2.8 µM
